The values that follow come from PubChem BioAssay AID1259411 (Chemical Carcinogenesis Research Information System (CCRIS), 2018).

The test system of the data set is rodent carcinogenicity bioassays, tumor incidence. Nature of the data set: CCRIS carcinogenicity studies. The method, boiled down:
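NCI-built, expert-reviewed records of carcinogenicity and related test outcomes (mutagenicity, tumor promotion/inhibition) compiled from published and report sources, historical span 1985-2011, not updated.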

Activity calls are given as the source filed them. The rule behind the calls is not given here.

For `CC1(C)COC1=O`, the carcinogen call (Species: MOUSE, Strain/Sex: B6C3F1/FEMALE, Route: GAVAGE, Dose: 0, 75, 150 MG/KG, Dose: 0, 75, 150 MG/KG) is “inactive; negative”; the carcinogen call (Species: MOUSE, Strain/Sex: B6C3F1/MALE, Route: GAVAGE, Dose: 0, 75, 150 MG/KG, Dose: 0, 75, 150 MG/KG) is “inactive; negative”; the carcinogen call (Species: RAT, Strain/Sex: F344/FEMALE, Route: GAVAGE, Dose: 0, 150, 300 MG/KG, Dose: 0, 150, 300 MG/KG, Tumor Site: Type of Lesion: STOMACH: SQUAMOUS CELL PAPILLOMA OR SQUAMOUS CELL CARCINOMA, UTERUS: ENDOMETRIAL STROMAL POLYP) was “active; positive”; the carcinogen call (Species: RAT, Strain/Sex: F344/MALE, Route: GAVAGE, Dose: 0, 150, 300 MG/KG, Dose: 0, 150, 300 MG/KG, Tumor Site: Type of Lesion: STOMACH: SQUAMOUS CELL PAPILLOMA OR SQUAMOUS CELL CARCINOMA, TESTES: INTERSTITIAL CELL TUMOR) is “active; positive”.
Turning to `CCCCC(CC)CO` (stereo not given), the carcinogen call runs as follows: (Species: MOUSE, Strain/Sex: B6C3F1/FEMALE, Route: GAVAGE, Dose: 0, 50, 200, 750 MG/KG/D 5 D/WK FOR 18 MO (STUDY DURATION: 18 MO), Dose: 0, 50, 200, 750 MG/KG/D 5 D/WK FOR 18 MO (STUDY DURATION: 18 MO)) “inactive; negative”; (Species: MOUSE, Strain/Sex: B6C3F1/MALE, Route: GAVAGE, Dose: 0, 50, 200, 750 MG/KG/D 5 D/WK FOR 18 MO (STUDY DURATION: 18 MO), Dose: 0, 50, 200, 750 MG/KG/D 5 D/WK FOR 18 MO (STUDY DURATION: 18 MO)) “inactive; negative”; (Species: RAT, Strain/Sex: F344/FEMALE, Route: GAVAGE, Dose: 0, 50, 150, 500 MG/KG/D 5 D/WK FOR 24 MO (STUDY DURATION: 24 MO), Dose: 0, 50, 150, 500 MG/KG/D 5 D/WK FOR 24 MO (STUDY DURATION: 24 MO)) “inactive; negative”; (Species: RAT, Strain/Sex: F344/MALE, Route: GAVAGE, Dose: 0, 50, 150, 500 MG/KG/D 5 D/WK FOR 24 MO (STUDY DURATION: 24 MO), Dose: 0, 50, 150, 500 MG/KG/D 5 D/WK FOR 24 MO (STUDY DURATION: 24 MO)) “inactive; negative”.
As for `Cc1ccc(N=Nc2c(O)c(S(=O)(=O)O)cc3cc(S(=O)(=O)O)ccc23)c(C)c1`, the carcinogen call by setting is: (Species: MOUSE, Route: ORAL, Tumor Site: Type of Lesion: LIVER) “active; positive”; (Species: RAT, Route: ORAL, Tumor Site: Type of Lesion: LIVER) “active; positive”.
On to `COC(=O)Nc1nc2ccccc2[nH]1`, for which the carcinogen call is, setting by setting: (Species: Mouse, Strain/Sex: CD-1/Female (80/sex/dose), Route: Oral, Dose: 0, 500, 1500, 7500 ppm in feed for 2 yr, Dose: 0, 500, 1500, 7500 ppm in feed for 2 yr, Tumor Site: Type of Lesion: Liver: Hepatocellular adenoma (0/68, 5/62, 5/66, 3/71), Hepatocellular carcinoma (2/68, 4/62, 15/66, 12/71), Combined (2, Tumor Site: Type of Lesion: Liver: Hepatocellular adenoma (0/68, 5/62, 5/66, 3/71), Hepatocellular carcinoma (2/68, 4/62, 15/66, 12/71), Combined (2) “active; positive: purity 99.3%”; (Species: Mouse, Strain/Sex: CD-1/Male (80/sex/dose); Route: Oral; Dose: 0; 500; 1500; 7500 ppm in feed for 2 yr except for highest dose where animals terminated at week 73 with 29% survival); Dose: 0; 500; 1500; 7500 ppm in feed for 2 yr except for highest dose where animals terminated at week 73 with 29% survival)) “inactive; negative: purity 99.3%”.
Consider `CC(C)C/C=N/N(C)C=O`, for which the carcinogen call (Species: MOUSE, Strain/Sex: SWISS/FEMALE, Route: GAVAGE, Dose: 0, 50 UG/G BW DISSOLVED IN PROPYLENE GLYCOL 1/WK FOR 2 WK (STUDY DURATION: LIFETIME), Tumor Site: Type of Lesion: THYROID: TUMOR, LUNG: TUMOR) is “active; positive”; the carcinogen call (Species: MOUSE, Strain/Sex: SWISS/FEMALE, Route: GAVAGE, Dose: 0, 50 UG/G BW DISSOLVED IN PROPYLENE GLYCOL 1/WK FOR 53 WK (STUDY DURATION: LIFETIME), Tumor Site: Type of Lesion: LUNG: TUMOR, LIVER: TUMOR, GALLBLADDER: TUMOR, Tumor Site: Type of Lesion: LUNG: TUMOR, LIVER: TUMOR, GALLBLADDER: TUMOR) is “active; positive”; the carcinogen call (Species: MOUSE, Strain/Sex: SWISS/MALE, Route: GAVAGE, Dose: 0, 50 UG/G BW DISSOLVED IN PROPYLENE GLYCOL 1/WK FOR 2 WK (STUDY DURATION: LIFETIME), Tumor Site: Type of Lesion: LUNG: TUMOR, THYROID: TUMOR) is “active; positive”; the carcinogen call (Species: MOUSE, Strain/Sex: SWISS/MALE, Route: GAVAGE, Dose: 0, 50 UG/G BW DISSOLVED IN PROPYLENE GLYCOL 1/WK FOR 53 WK (STUDY DURATION: LIFETIME), Tumor Site: Type of Lesion: LUNG: TUMOR, LIVER: TUMOR, GALLBLADDER: TUMOR, PREPUTIAL GLAND: TUMOR, Tumor Site: Type of Lesion: LUNG: TUMOR, LIVER: TUMOR, GALLBLADDER: TUMOR, PREPUTIAL GLAND: TUMOR) was “active; positive”.
For the molecule `[K+]`, the carcinogen call is “active; positive” (Species: RAT, Strain/Sex: F344/FEMALE, Route: ORAL, Dose: 0, 10, 100, 1000 PPM IN DRINKING WATER FOR 2 YR (STUDY DURATION: 2 YR), Dose: 0, 10, 100, 1000 PPM IN DRINKING WATER FOR 2 YR (STUDY DURATION: 2 YR), Tumor Site: Type of Lesion: SALIVARY GLAND: SQUAMOUS CELL CARCINOMA) and “active; positive” (Species: RAT, Strain/Sex: F344/MALE, Route: ORAL, Dose: 0, 10, 100, 1000 PPM IN DRINKING WATER FOR 2 YR (STUDY DURATION: 2 YR), Dose: 0, 10, 100, 1000 PPM IN DRINKING WATER FOR 2 YR (STUDY DURATION: 2 YR), Tumor Site: Type of Lesion: SALIVARY GLAND: SQUAMOUS CELL CARCINOMA).
For `O=P(OCCCl)(OCCCl)OCCCl`, the carcinogen call (Species: MOUSE, Strain/Sex: B6C3F1/FEMALE, Route: GAVAGE, Dose: 0, 175, 350 MG/KG IN CORN OIL 5 D/WK FOR 103 (STUDY DURATION: 104 WK), Dose: 0, 175, 350 MG/KG IN CORN OIL 5 D/WK FOR 103 (STUDY DURATION: 104 WK), Tumor Site: Type of Lesion: HARDERIAN GLAND: ADENOMA OR CARCINOMA) is “equivocal”; the carcinogen call (Species: MOUSE, Strain/Sex: B6C3F1/MALE, Route: GAVAGE, Dose: 0, 175, 350 MG/KG IN CORN OIL 5 D/WK FOR 103 (STUDY DURATION: 104 WK), Dose: 0, 175, 350 MG/KG IN CORN OIL 5 D/WK FOR 103 (STUDY DURATION: 104 WK), Tumor Site: Type of Lesion: KIDNEY (RENAL TUBULE): ADENOMA, CARCINOMA) is “equivocal”; the carcinogen call (Species: MOUSE, Strain/Sex: DDY/FEMALE, Route: ORAL, Dose: 0, 0.012, 0.06, 0.3, 1.5% IN DIET FOR 18 MO (STUDY DURATION: 18 MO), Dose: 0, 0.012, 0.06, 0.3, 1.5% IN DIET FOR 18 MO (STUDY DURATION: 18 MO), Tumor Site: Type of Lesion: HEMATOPOIETIC SYSTEM: LEUKEMIA, FORESTOMACH: PAPILLOMA, CARCINOMA) was “active; positive”; the carcinogen call (Species: MOUSE, Strain/Sex: DDY/MALE, Route: ORAL, Dose: 0, 0.012, 0.06, 0.3, 1.5% IN DIET FOR 18 MO (STUDY DURATION: 18 MO), Dose: 0, 0.012, 0.06, 0.3, 1.5% IN DIET FOR 18 MO (STUDY DURATION: 18 MO), Tumor Site: Type of Lesion: LIVER: HEPATOCELLULAR ADENOMA, HEPATOCELLULAR CARCINOMA, KIDNEY: RENAL CELL ADENOMA, RENAL CELL CARCINOMA) was “active; positive”; the carcinogen call (Species: MOUSE, Strain/Sex: SLC:DDY/FEMALE, Route: DERMAL, Dose: 0, 5, 50% IN ETHANOL 2/WK FOR 79 WK (STUDY DURATION: 18 MO), Dose: 0, 5, 50% IN ETHANOL 2/WK FOR 79 WK (STUDY DURATION: 18 MO)) was “inactive; negative”; the carcinogen call (Species: RAT, Strain/Sex: F344/FEMALE, Route: GAVAGE, Dose: 0, 44, 88 MG/KG IN CORN OIL 5 D/WK FOR 103 (STUDY DURATION: 104 WK), Dose: 0, 44, 88 MG/KG IN CORN OIL 5 D/WK FOR 103 (STUDY DURATION: 104 WK), Tumor Site: Type of Lesion: KIDNEY (RENAL TUBULE): ADENOMA) is “active; positive”. Further, the carcinogen call (Species: RAT, Strain/Sex: F344/MALE, Route: GAVAGE, Dose: 0, 44, 88 MG/KG IN CORN OIL 5 D/WK FOR 103 (STUDY DURATION: 104 WK), Dose: 0, 44, 88 MG/KG IN CORN OIL 5 D/WK FOR 103 (STUDY DURATION: 104 WK), Tumor Site: Type of Lesion: KIDNEY (RENAL TUBULE): ADENOMA OR CARCINOMA, HEMATOPOIETIC SYSTEM: LEUKEMIA (MONONUCLEAR)) is “active; positive”.
